Where “and” joins values, the source holds several entries; their conditions need not be identical. Identical values can stand only once.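 1) Cells in 96-well plates. 2) Compound, 48 h, 5 concentrations. 3) Linear interpolation between surrounding doses. 4) Unreached endpoint = highest concentration. Here, GI50 denotes the concentration required for 50% inhibition of growth. TGI is the concentration that stops growth completely.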 Where only a bound is given, the exact number is not on record here.

The results in this text go back to PubChem BioAssay (NCI).

Test systems include MDA-MB-435; 786-0 renal; CAKI-1 renal; PC-3 prostate; SN12C renal; A549 NSCLC; HOP-92 NSCLC; SF-268 CNS; OVCAR-3 ovarian; SR leukemia.
Common to all, as to assay: DTP human tumour cell line panel, 48 h

For the compound `CN(C)c1ccc2[nH]c(O)c(C=Nc3ccc(S(N)(=O)=O)cc3)c2c1`, the GI50 with MDA-MB-435, with 786-0 renal, in the assay with CAKI-1 renal, in the assay with PC-3 prostate, with SN12C renal and in the assay with A549 NSCLC was more than 25 µM in each case. For the same compound, the GI50 (commonly the concentration giving 50% growth inhibition) with HOP-92 NSCLC is more than 25 µM; in the assay on SF-268 CNS it was more than 25 µM; in the assay on OVCAR-3 ovarian, more than 25 µM; in the assay on SR leukemia it was 13500 nM. For the same compound, the TGI in the assay with MDA-MB-435, with 786-0 renal, with CAKI-1 renal, in the assay on PC-3 prostate, in the assay with SN12C renal and in the assay with A549 NSCLC was more than 25 µM throughout. Moreover, the TGI in the assay on HOP-92 NSCLC, in the assay on SF-268 CNS, with OVCAR-3 ovarian and in the assay on SR leukemia was more than 25 µM in each case.
As to `O=C1C(Br)=C(c2ccccc2)C(c2ccccc2)=C1c1ccccc1`, the total growth inhibition concentration (TGI) (commonly the concentration at which net growth stops) came to 12.5 µM in the assay on MDA-MB-435; 4.26 µM with 786-0 renal; 6.06 µM with CAKI-1 renal; 16.2 µM in the assay on PC-3 prostate; 3.85 µM with SN12C renal; 28.1 µM in the assay on A549 NSCLC. The TGI worked out at 3.84 µM with HOP-92 NSCLC, 7.52 µM in the assay on SF-268 CNS, 6.37 µM with OVCAR-3 ovarian and 3.78 µM in the assay on SR leukemia.
Turning to `Cc1c(N(C(=O)c2cc(-c3cc(Cl)ccc3C(=O)N3Cc4ccccc4C[C@H]3CN3CCOCC3)n(C)c2C)c2ccc(O)cc2)cc(C#N)n1C`, the GI50 is 16.5 µM in the assay with MDA-MB-435; 12.5 µM with 786-0 renal; 6.35 µM in the assay on CAKI-1 renal; 11.3 µM in the assay with PC-3 prostate; 19.5 µM in the assay with SN12C renal; 27.6 µM in the assay with A549 NSCLC. Also, the GI50 in the assay on HOP-92 NSCLC was 5.24 µM; in the assay on SF-268 CNS it was 20.5 µM; in the assay on OVCAR-3 ovarian, 11 µM; in the assay with SR leukemia it was 6250 nM. The TGI in the assay with MDA-MB-435 was 40.7 µM; in the assay on 786-0 renal it was 36.8 µM; in the assay with CAKI-1 renal it was more than 100 µM; with PC-3 prostate, more than 100 µM; in the assay on SN12C renal it was more than 100 µM; in the assay on A549 NSCLC, more than 100 µM. Besides, the TGI in the assay on HOP-92 NSCLC is 22.6 µM; with SF-268 CNS, more than 100 µM; in the assay on OVCAR-3 ovarian it was more than 100 µM; in the assay on SR leukemia, more than 100 µM.
As to `COc1cc2c3c(n(CCCn4ccnc4)c(=O)c2cc1OC)-c1ccccc1C3=O`, the GI50 with MDA-MB-435 is 0.0417 µM; with 786-0 renal it was less than 0.01 µM; in the assay on CAKI-1 renal it was less than 0.01 µM; in the assay on PC-3 prostate, 0.169 µM; with SN12C renal, less than 0.0467 µM; in the assay on A549 NSCLC, less than 0.0337 µM. The GI50 in the assay with HOP-92 NSCLC was 0.0343 µM; in the assay with SF-268 CNS, less than 0.0423 µM; with OVCAR-3 ovarian, less than 0.0471 µM; with SR leukemia, 25.2 nM. For the same compound, the TGI in the assay with MDA-MB-435 is 0.779 µM; in the assay with 786-0 renal, 0.194 µM; in the assay on CAKI-1 renal it was 0.105 µM; in the assay on PC-3 prostate, more than 100 µM; in the assay on SN12C renal, 5.4 µM; in the assay on A549 NSCLC it was 0.413 µM. The TGI is 3 µM in the assay with HOP-92 NSCLC, more than 100 µM in the assay with SF-268 CNS, 0.484 µM with OVCAR-3 ovarian and 0.0583 µM in the assay on SR leukemia.
On to `CCC[CH2][Sn]([CH2]CCC)([O]C(=O)c1cccc(F)c1F)[O][Sn]([CH2]CCC)([CH2]CCC)[O]C(=O)c1cccc(F)c1F`, for which the GI50 was 0.13 µM in the assay on MDA-MB-435; 0.154 µM with 786-0 renal; 0.116 µM in the assay with CAKI-1 renal; 0.59 µM in the assay with PC-3 prostate; 0.293 µM in the assay on SN12C renal; 1.78 µM with A549 NSCLC. In addition, the GI50 in the assay with HOP-92 NSCLC was 0.13 µM; in the assay on SF-268 CNS it was 0.157 µM; in the assay on OVCAR-3 ovarian it was 0.493 µM; in the assay with SR leukemia, 77.1 nM. Besides, the TGI in the assay on MDA-MB-435 was 1.09 µM; in the assay with 786-0 renal, 0.344 µM; with CAKI-1 renal, 0.363 µM; in the assay with PC-3 prostate, 1.86 µM; in the assay on SN12C renal it was 1.15 µM; with A549 NSCLC, 3.44 µM. The TGI in the assay on HOP-92 NSCLC was 0.399 µM; in the assay on SF-268 CNS it was 0.541 µM; with OVCAR-3 ovarian, 1.64 µM.
As to `O=c1[nH]cnc2c1nnn2[C@@H]1O[C@H](CO)[C@@H](O)[C@H]1O`, the GI50 with MDA-MB-435 is 6.26 µM; in the assay on 786-0 renal it was 3.83 µM; in the assay on CAKI-1 renal, 1.04 µM; in the assay with PC-3 prostate, 2.77 µM; with SN12C renal, 6.4 µM; in the assay on A549 NSCLC, 27.5 µM. In addition, the GI50 is 2.33 µM in the assay with HOP-92 NSCLC, 28.9 µM in the assay with SF-268 CNS, 3.43 µM in the assay on OVCAR-3 ovarian and 4770 nM in the assay on SR leukemia. Also, the TGI with MDA-MB-435, with 786-0 renal, with CAKI-1 renal, in the assay with PC-3 prostate, in the assay on SN12C renal and with A549 NSCLC was more than 100 µM throughout. For the same compound, the TGI was more than 100 µM with HOP-92 NSCLC, more than 100 µM with SF-268 CNS, 33.8 µM in the assay with OVCAR-3 ovarian and more than 100 µM in the assay with SR leukemia.
As to `CCOC(=O)CCc1c(C)c2ccc(O)cc2oc1=O`, the TGI in the assay with MDA-MB-435, in the assay with 786-0 renal, with CAKI-1 renal, in the assay on PC-3 prostate, in the assay on SN12C renal and in the assay on A549 NSCLC was more than 100 µM throughout. For the same compound, the TGI in the assay on HOP-92 NSCLC, with SF-268 CNS, in the assay on OVCAR-3 ovarian and with SR leukemia was more than 100 µM throughout.
As for `C=C1C(=O)O[C@H]2[C@H]1CC/C(COC(=O)N[C@@H](Cc1c[nH]c3ccccc13)C(=O)OC)=C\CC[C@@]1(C)O[C@@H]21`, the GI50 in the assay with MDA-MB-435 is 1.49 µM; in the assay with 786-0 renal it was 1.48 µM; in the assay on CAKI-1 renal it was 1.2 µM; with PC-3 prostate, 1.45 µM; in the assay on SN12C renal, 1.37 µM; in the assay on A549 NSCLC, 9.94 µM. In addition, the GI50 in the assay with HOP-92 NSCLC is 1.42 µM; in the assay with SF-268 CNS, 2.25 µM; in the assay on OVCAR-3 ovarian, 1.24 µM; in the assay on SR leukemia it was 262 nM. Besides, the TGI with MDA-MB-435 was 3.25 µM; in the assay with 786-0 renal it was 2.92 µM; in the assay on CAKI-1 renal it was 2.89 µM; with PC-3 prostate it was 3.41 µM; in the assay with SN12C renal, 3.1 µM; in the assay on A549 NSCLC it was 24.3 µM. Moreover, the TGI in the assay with HOP-92 NSCLC worked out at 2.98 µM; in the assay with SF-268 CNS it was 6.67 µM; in the assay with OVCAR-3 ovarian, 2.69 µM; in the assay with SR leukemia, 1.51 µM.
With `COc1ccc2c(c1)/C(=C/c1c(-c3ccc(C)cc3)nc3sc(C)cn13)C(=O)N2`, the GI50 with MDA-MB-435 was 19 µM; in the assay with 786-0 renal, 6.68 µM; with CAKI-1 renal, 35.3 µM; in the assay on PC-3 prostate, 4.61 µM; in the assay on SN12C renal, 13.9 µM; in the assay on A549 NSCLC it was 12.5 µM. Moreover, the GI50 is 10.3 µM in the assay with HOP-92 NSCLC, 11.1 µM in the assay on SF-268 CNS, 15.5 µM in the assay on OVCAR-3 ovarian and 1590 nM in the assay with SR leukemia. In addition, the TGI was more than 100 µM with MDA-MB-435; 50.2 µM in the assay on 786-0 renal; more than 100 µM with CAKI-1 renal; more than 100 µM with PC-3 prostate; 31.9 µM with SN12C renal; more than 100 µM with A549 NSCLC. Besides, the TGI in the assay on HOP-92 NSCLC was 60.5 µM; with SF-268 CNS it was more than 100 µM; in the assay on OVCAR-3 ovarian, more than 100 µM; with SR leukemia, 28.7 µM.
As for `COc1cc(N)ccc1Nc1c2ccccc2nc2ccccc12`, the GI50 was 17 µM with MDA-MB-435; 12.7 µM in the assay with 786-0 renal; 7.75 µM in the assay with CAKI-1 renal; 10.6 µM with PC-3 prostate; 7.73 µM in the assay with SN12C renal; 4.32 µM with A549 NSCLC. For the same compound, the GI50 is 4.59 µM in the assay on HOP-92 NSCLC, 14.2 µM in the assay with SF-268 CNS, 12.2 µM with OVCAR-3 ovarian and 2110 nM with SR leukemia. In addition, the total growth inhibition concentration (TGI) in the assay on MDA-MB-435 stood at 33.2 µM; in the assay on 786-0 renal it was 27.2 µM; in the assay with CAKI-1 renal, 25.1 µM; with PC-3 prostate, 29.6 µM; in the assay with SN12C renal it was 24.9 µM; in the assay with A549 NSCLC, 24.9 µM. Moreover, the TGI in the assay with HOP-92 NSCLC was 23 µM; with SF-268 CNS it was 35.3 µM; in the assay with OVCAR-3 ovarian, 25.4 µM; in the assay with SR leukemia, more than 32.5 µM.
As to `Cc1cc(-c2cc(C)c(O)c(C(C)(C)C)c2)cc(C(C)(C)C)c1O`, the TGI was 26.4 µM and 28 µM with MDA-MB-435; 22.6 µM and 25.7 µM in the assay on 786-0 renal; 22.7 µM and 27.7 µM in the assay with CAKI-1 renal; 19.2 µM and 26.5 µM in the assay with PC-3 prostate; 24.8 µM and 26.2 µM in the assay with SN12C renal; 21.4 µM and 21.3 µM with A549 NSCLC. The TGI in the assay on HOP-92 NSCLC is 29.8 µM and 17.5 µM; with SF-268 CNS, 23.9 µM and 29 µM; in the assay with OVCAR-3 ovarian, 28.4 µM and 27 µM; with SR leukemia it was 18.1 µM. In addition, the GI50 with PC-3 prostate is 6.09 µM and 13.7 µM; with HOP-92 NSCLC it was 15.1 µM and 4.92 µM.
